The values that follow are results of earlier work, collected in patent publication US9604971B2, “Co-crystal of the PAR-1 receptor antagonists vorapaxar and aspirin” (ARALEZ PHARMACEUTICALS TRADING DAC, priority 2013, dated 2017).

Structures are written as SMILES.

The conditions of this series: over time; reverted to the crystalline structure of Form 1.

As to `CCOC(=O)N[C@@H]1CC[C@@H]2[C@@H](C1)C[C@H]1C(=O)O[C@H](C)[C@H]1[C@H]2/C=C/c1ccc(-c2cccc(F)c2)cn1` [Form 2], the “stability of crystalline polymorphic form” value is reported as “unstable”.
